From the supplement of paper PMC10627819
Converted amounts (≈) assume the structure as drawn.

Assays:
S. aureus DSM 20231 [1] = experiment: fitness (endpoint OD595 vs no drug) (fraction); higher = more growth
Method in brief: (§1)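 Volumes were 30 µl per well, or 55 µl for S. pneumoniae, in 384-well plates inoculated at OD595 0.01. Media were TSB, LB Lennox or CY at 37 °C, and OD595 was read every 30 min for 14 h with first-reading background subtraction. Fitness is the ratio of optical density at stationary-phase entry to the robust mean of no-drug controls. That ratio is capped at 1.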

S. pneumoniae D39V [2] = experiment: as above
Method in brief: as §1

S. aureus Newman [3] = experiment: as above
Method in brief: as §1

B. subtilis 168 [4] = experiment: as above
Method in brief: as §1

S. aureus DSM 20231 [5] = experiment: Bliss interaction score (quartile over a dose matrix) (fitness difference); higher = more antagonism (negative = synergy)
Method in brief: (§2)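 The Bliss score was calculated by subtracting the expected fitness, the product of single-drug values, from the observed fitness. OD595 at entry into stationary phase, over the plate's robust no-drug mean and capped at 1, served as the fitness readout. Single-drug values were inferred from combination data, and scores are summarised by quartiles across technical, biological and donor/recipient replicates.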

S. pneumoniae D39V [6] = experiment: as above
Method in brief: as §2

S. aureus Newman [7] = experiment: as above
Method in brief: as §2

B. subtilis 168 [8] = experiment: as above
Method in brief: as §2

S. aureus DSM 20231 [9] = tested on: S. aureus DSM 20231
S. pneumoniae D39V [10] = tested on: S. pneumoniae D39V
S. aureus Newman [11] = tested on: S. aureus Newman
B. subtilis 168 [12] = tested on: B. subtilis 168
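Throughout, for Bliss interaction score (quartile over a dose matrix): first quartile when negative (synergy) and third quartile when positive (antagonism).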

CCCCCCCCCC(=O)N[C@@H](Cc1c[nH]c2ccccc12)C(=O)N[C@H](CC(N)=O)C(=O)N[C@@H](CC(=O)O)C(=O)N[C@@H]1C(=O)NCC(=O)N[C@@H](CCCN)C(=O)N[C@@H](CC(=O)O)C(=O)N[C@H](C)C(=O)N[C@@H](CC(=O)O)C(=O)NCC(=O)N[C@H](CO)C(=O)N[C@@H]([C@H](C)CC(=O)O)C(=O)N[C@@H](CC(=O)c2ccccc2N)C(=O)O[C@@H]1C [Daptomycin] + O=C(O[C@@H]1Cc2c(O)cc(O)cc2O[C@@H]1c1cc(O)c(O)c(O)c1)c1cc(O)c(O)c(O)c1 [EGCG]
fitness
Details | partner 6.25 µg/mL | partner 12.5 µg/mL | partner 25 µg/mL | partner 50 µg/mL
B. subtilis 168 [4], first compound 0.125 µg/mL | 0.906 | – | 0.305 | –
B. subtilis 168 [4], first compound 0.25 µg/mL | 0.895 | 0.719 | – | –
B. subtilis 168 [4], first compound 0.5 µg/mL | 0.838 | 0.598 | – | –
S. aureus DSM 20231 [1], first compound 0.5 µg/mL | – | 0.814 | 0.778 | 0.808
S. aureus DSM 20231 [1], first compound 1 µg/mL | – | 0.788 | 0.721 | 0.699
S. aureus DSM 20231 [1], first compound 2 µg/mL | – | 0.728 | 0.736 | –
S. aureus Newman [3], first compound 0.125 µg/mL | – | 0.817 | 0.79 | 0.742
S. aureus Newman [3], first compound 0.25 µg/mL | – | 0.828 | 0.815 | 0.754
S. aureus Newman [3], first compound 0.5 µg/mL | – | 0.861 | 0.843 | 0.742
S. pneumoniae D39V [2], first compound 1 µg/mL | – | 0.909 | 0.95 | –
S. pneumoniae D39V [2], first compound 2 µg/mL | – | 0.921 | 0.906 | 0.971
S. pneumoniae D39V [2], first compound 4 µg/mL | – | – | – | 0.832

B. subtilis 168 [4], first compound 1 µg/mL, one replicate
Details | fitness
partner 6.25 µg/mL | 0.665
partner 12.5 µg/mL | 0.399
partner 25 µg/mL | 0.0311

Details | Bliss interaction score
B. subtilis 168 [8] | -0.0882
S. aureus DSM 20231 [5] | -0.0959
S. aureus Newman [7] | 0.0602
S. pneumoniae D39V [6] | 0.0768

C[C@H]1COc2c(N3CCN(C)CC3)c(F)cc3c(=O)c(C(=O)O)cn1c23 [Levofloxacin]
fitness
Details | 0.002 µg/mL | 0.0039 µg/mL | 0.0078 µg/mL | 0.0312 µg/mL | 0.0625 µg/mL | 0.125 µg/mL | 0.2 µg/mL | 0.4 µg/mL | 0.8 µg/mL
B. subtilis 168 [4] | 0.932 | 0.928 | 0.916 | 0.0401 | 0.0424 | 0.0419 | – | – | –
S. pneumoniae D39V [2] | – | – | – | – | – | – | 0.931 | 0.789 | 0.468

Details | MIC [µg/mL]
S. aureus DSM 20231 [9] | 0.15 (≈ 0.415 µM)
S. pneumoniae D39V [10] | 2 (≈ 5.53 µM)

CN(C)C(=O)C(CCN1CCC(O)(c2ccc(Cl)cc2)CC1)(c1ccccc1)c1ccccc1 [Loperamide]
fitness
Details | 20 µg/mL | 25 µg/mL | 40 µg/mL | 50 µg/mL | 80 µg/mL | 100 µg/mL
B. subtilis 168 [4] | – | 0.651 | – | 0.254 | – | 0.03
S. aureus DSM 20231 [1] | – | ≥ 1 | – | 0.925 | – | 0.0918
S. pneumoniae D39V [2] | ≥ 1 | – | ≥ 1 | – | 0.869 | –

Details | MIC [µg/mL]
B. subtilis 168 [12] | 100 (≈ 210 µM)
S. aureus DSM 20231 [9] | 120 (≈ 252 µM)
S. aureus Newman [11] | 120 (≈ 252 µM)
S. pneumoniae D39V [10] | 200 (≈ 419 µM)

CCN(CC)CCOC(=O)c1ccc(N)cc1 [Procaine]
fitness
Details | B. subtilis 168 [4] | S. aureus DSM 20231 [1] | S. aureus Newman [3] | S. pneumoniae D39V [2]
85.5 µg/mL | 0.922 | 0.999 | 0.982 | 0.995
171 µg/mL | 0.918 | 0.998 | 0.972 | ≥ 1
342 µg/mL | 0.91 | 0.999 | 0.95 | 0.977

Details | MIC [µg/mL]
B. subtilis 168 [12] | > 342
S. aureus DSM 20231 [9] | > 342
S. aureus Newman [11] | > 342
S. pneumoniae D39V [10] | > 342

CCN(CC)CCOC(=O)c1ccc(N)cc1 [Procaine] + CC1=C\[C@@H](O)CC(=O)Cc2nc(co2)C(=O)N2CCC=C2C(=O)O[C@H](C(C)C)[C@H](C)/C=C/C(=O)NC\C=C\1 [Virginiamycin M1]
fitness
Details | first compound 85.5 µg/mL | first compound 171 µg/mL | first compound 342 µg/mL
B. subtilis 168 [4], partner 0.0625 µg/mL | 0.957 | 0.962 | 0.904
B. subtilis 168 [4], partner 0.125 µg/mL | 0.88 | 0.92 | 0.881
B. subtilis 168 [4], partner 0.25 µg/mL | 0.905 | 0.892 | 0.882
S. aureus DSM 20231 [1], partner 0.0625 µg/mL | – | 0.976 | 0.872
S. aureus DSM 20231 [1], partner 0.125 µg/mL | – | ≥ 1 | ≥ 1
S. aureus DSM 20231 [1], partner 0.25 µg/mL | 0.94 | 0.906 | 0.878
S. pneumoniae D39V [2], partner 0.5 µg/mL | ≥ 1 | ≥ 1 | ≥ 1
S. pneumoniae D39V [2], partner 1 µg/mL | ≥ 1 | ≥ 1 | ≥ 1
S. pneumoniae D39V [2], partner 2 µg/mL | 0.948 | 0.926 | 0.951

fitness, one replicate
Details | first compound 85.5 µg/mL | first compound 171 µg/mL | first compound 342 µg/mL
S. aureus DSM 20231 [1], partner 0.5 µg/mL | 0.82 | 0.747 | 0.842
S. aureus DSM 20231 [1], partner 1 µg/mL | 0.726 | 0.774 | 0.779
S. aureus Newman [3], partner 0.0625 µg/mL | ≥ 1 | ≥ 1 | ≥ 1
S. aureus Newman [3], partner 0.125 µg/mL | ≥ 1 | ≥ 1 | ≥ 1
S. aureus Newman [3], partner 0.25 µg/mL | ≥ 1 | ≥ 1 | ≥ 1
S. aureus Newman [3], partner 0.5 µg/mL | 0.851 | 0.766 | 0.795
S. aureus Newman [3], partner 1 µg/mL | 0.977 | ≥ 1 | 0.968
S. aureus Newman [3], partner 2 µg/mL | 0.913 | 0.91 | 0.812
S. pneumoniae D39V [2], partner 0.15 µg/mL | 0.976 | 0.936 | 0.971
S. pneumoniae D39V [2], partner 0.3 µg/mL | 0.983 | 0.941 | 0.934

Details | Bliss interaction score
B. subtilis 168 [8] | -0.0324
S. aureus DSM 20231 [5] | -0.0838
S. aureus Newman [7] | 0.0179
S. pneumoniae D39V [6] | 0.036
